The results in this text go back to patent publication US20200239547A1, “ANTICANCER PEPTIDES” (IDP DISCOVERY PHARMA, S.L., priority 2017, published 2020).

In experiment [1] the target is MCF-7, epithelial (breast cancer).
Method: MCF-7, epithelial (breast cancer), ECACC: 86012803
(§6) Cell line MCF-7 was cultured in incubator under CO2 (6%) at 37° C. in DMEM high glucose (Dulbecco's Modified Eagle Solution, Gibco-BRL 31966-21) medium with 10% fetal bovine serum inactivated (FBS) (Gibco-BRL 10106-169). Cell lines HL-60, RPMI and U266 were cultured in incubator at 37° C. in RPMI-1640 (Sigma R8758) medium with 10% of fetal bovine serum inactivated (FBS) and 2 mM glutamine (Sigma G7513).
(§7) During the amplification step and the assays adherent cells were rinsed with DPBS (Dulbecco's Phosphate Buffered Saline, Sigma D1283) three times and afterward treated for 5 minutes with trypsin ([0.5 g/ml]/EDTA [0.2 g/ml]) (Gibco-BRL, 15400054) in solution of DPBS at 37° C., and, once detached, transferred in the culturing medium. No-adherent cells were centrifuged and transferred in the culturing medium. Cells were counted in a Neubauer chamber after labelling with Tripan-Blue.
(§8) MTT: 1. Stock solution of MTT (475989 Calbiochem) was 5 mg/ml in PBS 1×. As negative control (experiment noise) 3 wells were treated with 20 μl/well of a solution of SDS 10% in H2O. The same control was used for Alamar Blue/Hexosaminidase. 10 μl/well of MTT solution were added and the plate was incubated for 3-4 hr. The medium was discarded and 100 μl of extracting buffer (PBS 1×, 15% SDS, 50% Na N,N-Dimethylformamide, pH 4.7) were added to each well. Plates were incubated for 16h at room temperature under orbital shaking. Absorbance at 570 nm was finally measured.
(§9) Alamar Blue: 10 μl Alamar Blue solution was added to each well and the plates were incubated for 4 in the incubator. Fluorescence ratio at 535/590 (excitation/emission) was measured in Cytofluor (Millipore) fluorimeter. Blank control was determined by lysis of untreated cells with con 2% of Triton X100, right before adding Alamar Blue solution.
(§10) Hexosaminidase activity test: after Alamar Blue lecture, medium was discarded and plates were rinsed once with PBS. 60 μl hexosaminidase substrate (p-nitrophenol-N-acetyl-beta-D-glucosamide 7.5 mM [Sigma N-9376], sodium citrate 0.1 M, pH 5.0, 0.25% Triton X-100) was added to each well and the plates were incubated at 37° C. for 2-5 h, according to the cell type (hexosaminidase activity changes according to the cell type). […] Blank control was the same as described before.
(§11) Data analysis was performed calculating the percentage of cell viability normalized vs. the values of negative control, which was considered equal to 100%. The dose/response curve was fitted through the sigmoidal equation dose-response (variable slope) and the ECK values were calculated as follow:
Experiment [2] concerns HL-60, promyeloblast (acute myelocytic leukemia, AML).
Method: HL-60, promyeloblast (acute myelocytic leukemia, AML), ECACC: 98070106
as §6, §7, §8, §9, §10, §11
The subject of experiment [3] is RPMI, lymphoblast (myeloma).
Method: RPMI, lymphoblast (myeloma), ATCC® CCL155™
Cell lines HL-60, RPMI and U266 were cultured in incubator at 37° C. in RPMI-1640 (Sigma R8758) medium with 10% of fetal bovine serum inactivated (FBS) and 2 mM glutamine (Sigma G7513).
as §7, §8, §9, §10, §11
Experiment [4] concerns U266, lymphoblast (myeloma).
Method: U266, lymphoblast (myeloma), ATCC® TIB196™
as §6, §7, §8, §9, §10, §11
Y=Bottom+(Top-Bottom)/(1+10̂{[(LogEC50-X)*HillSlope]},
In a further experiment the test system is SCLC cell lines. Kind of experiment: Viability assay, summary over SCLC cell lines. The experiment is classed as cell-based. To be noted: summary in words of Table 3. The procedure:
MCF-7 and NCl-H187 cells were seeded at a density of 5000 cells/well; NCl-H82 were seeded at a density of 2500 cells/well; HL-60, RPMI, U266 and NCl-H510A at 10000 cells/well in 100 μl of medium in 96 well plates. After 24 h, the compounds to be tested were added to calculate the dose/response curve at the starting concentration of 100 μM with serial dilutions (1:1). Controls are the untreated cells. Each experiment was performed in triplicate.
(§1) Cells were incubated during 48-72 h in incubator under CO2 atmosphere at 37° C. Cell viability was measured by means of MTT (3-(4,5-dimethylthiazol-2-yl)-2,5-diphenyltetrazolium bromide) assay, Alamar Blue® (Biosource DAL1100) and Hexosaminidase activity test, consecutively, following manufacturer instructions.
Data analysis was performed calculating the percentage of cell viability normalized vs. the values of negative control, which was considered equal to 100%. The dose/response curve was fitted through the sigmoidal equation dose-response (variable slope) and the […] values were calculated as follow: […]

Experiment [5] has as its system NCl-H187, epithelial (small cell lung cancer, SCLC). Kind of experiment: Viability assay in NCl-H187. The following applies: H187 cell line, 48-72 h incubation. The experiment is classed as cell-based. The procedure:
NCl-H187, epithelial (small cell lung cancer, SCLC), ATCC-CRL-5804
(§2) Cell lines NCl-H82, NCl-H187 were cultured in incubator at 37° C. in RPMI-1640 (Sigma R8758) medium with 10% of fetal bovine serum inactivated (FBS) and 2 mM glutamine (Sigma G7513). Cell line NCl-H510A was cultured in incubator in F12K medium with 10% of fetal bovine serum inactivated (FBS).
(§3) During the amplification step and the assays adherent cells were rinsed with DPBS (Dulbecco's Phosphate Buffered Saline, Sigma D1283) three times and afterward treated for 5 minutes with trypsin ([…]) (Gibco-BRL, 15400054) in solution of DPBS at 37° C., and, once detached, transferred in the culturing medium. […] Cells were counted in a Neubauer chamber after labelling with Tripan-Blue. […]
as §1
(§4) MTT: 1. […] Absorbance at 570 nm was finally measured.
(§5) Alamar Blue: 10 μl Alamar Blue solution was added to each well and the plates were incubated for […] in the incubator. Fluorescence ratio at 535/590 (excitation/emission) was measured in Cytofluor (Millipore) fluorimeter. […]

Experiment [6] deals with NCl-H82, epithelial (small cell lung cancer, SCLC). Put plainly: Viability assay in NCl-H82. The experiment is classed as cell-based. To be noted: H82 cell line, 48-72 h incubation. The procedure:
NCl-H82, epithelial (small cell lung cancer, SCLC), ATCC-CRL-5811
as §2, §3, §1, §4, §5

Experiment [7] relates to NCl-H510A, epithelial (small cell lung cancer, SCLC). Put plainly: Viability assay in NCl-H510A. In kind it is cell-based. To be noted: H510A cell line, 48-72 h incubation. The method, then:
NCl-510A, epithelial (small cell lung cancer, SCLC), ATCC-HBT-124
as §2, §3, §1, §4, §5

Starred links: 1 amine or outer side, 2 acyl side, 3 side chain; linkers in the order of their positions; H or OH if unused. Positions of bridges follow the written chain, without caps; N, C: chain ends. Non-standard residues stand in square brackets, D forms with d. Residues, ends and D or L forms follow the SMILES beside them. No end group written: not given here. ξ: configuration not given here. ξαMeNle(6-ylidene) = CC(CCCC=[*:3])(N[*:1])C(=O)[*:2]; X1 = CC(CCCCCCC=[*:3])(N[*:1])C(=O)[*:2]; R8 = C=CCCCCCC[C@@](C)(N)C(=O)O; S5 = C=CCCC[C@](C)(N)C(=O)O

For orientation: EC50 means the midpoint of the concentration-response curve. A high value points to a need for much substance. Regarding `CC[C@H](C)[C@H](NC(=O)[C@@H](NC(=O)[C@@H](NC(=O)[C@H](CCCCN)NC(=O)[C@@H]1CCCN1C(=O)[C@H](C)N)C(C)C)C(C)C)C(=O)N[C@@H](CC(C)C)C(=O)NC1(C)CCCCCCC=CCCCC(C)(C(=O)N[C@@H](C)C(N)=O)NC(=O)[C@H](CC(C)C)NC(=O)[C@H](Cc2ccc(O)cc2)NC(=O)[C@H](CCC(=O)O)NC(=O)[C@H](CC(C)C)NC(=O)[C@H](C)NC(=O)[C@H](CCCCN)NC1=O` (stereo partly shown) [IDP-LS17, APKVVILXKALEYLXA] (H-APKVVIL[X1]KALEYL[ξαMeNle(6-ylidene)]A-NH2; staple 8-15 (inferred); N-terminus and C-terminus assumed), the EC50 is > 100 µM in experiment [1], > 100 µM in experiment [2], ~10 µM in experiment [3] and ~16 µM in experiment [4].
As to “RRRRRRRRKRRNDLRSRFLALRDQ-NH2 [IDP-intwtL05]”, the EC50 in experiment [1], in experiment [2], in experiment [3] and in experiment [4] was > 100 µM in each case.
With `CC[C@H](C)[C@H](NC(=O)[C@H](CCCCN)NC(=O)[C@@H](NC(=O)[C@H](CCC(N)=O)NC(=O)[C@@H](N)CCCNC(=N)N)[C@@H](C)CC)C(=O)N[C@@H](Cc1c[nH]c2ccccc12)C(=O)N[C@@H](Cc1ccccc1)C(=O)N[C@@H](CCC(N)=O)C(=O)N[C@@H](CC(N)=O)C(=O)N[C@@H](CCCNC(=N)N)C(=O)N[C@@H](CCCNC(=N)N)C(=O)N[C@@H](CCSC)C(=O)N[C@@H](CCCCN)C(=O)N[C@@H](Cc1c[nH]c2ccccc12)C(=O)N[C@@H](CCCCN)C(=O)N[C@@H](CCCCN)C(=O)N[C@@H](CO)C(=O)N[C@@H](CCCCN)C(=O)N[C@@H](C)C(=O)N1CCC[C@H]1C(=O)N[C@@H](CCCCN)C(=O)N[C@H](C(=O)N[C@H](C(=O)N[C@H](C(=O)N[C@@H](CC(C)C)C(=O)N[C@@H](CO)C(=O)N[C@@H](CCCCN)C(=O)N[C@@H](C)C(=O)N[C@@H](CC(C)C)C(=O)N[C@@H](CCC(=O)O)C(=O)N[C@@H](Cc1ccc(O)cc1)C(=O)N[C@@H](CC(C)C)C(=O)N[C@@H](CCC(N)=O)C(=O)N[C@@H](C)C(N)=O)[C@@H](C)CC)C(C)C)C(C)C` [IDP-LLCb02], the “anti-cancer activity in SCLC cell lines” value in the experiment with SCLC cell lines was “showed anti-cancer activity”.
Regarding `CC(C)C[C@@H]1NC(=O)[C@H](C)NC(=O)[C@H](CC(C)C)NC(=O)[C@H](Cc2ccccc2)NC(=O)[C@H](CCCNC(=N)N)NC(=O)[C@H](CO)NC(=O)[C@](C)(NC(=O)[C@H](CC(C)C)NC(=O)[C@H](CC(=O)O)NC(=O)[C@H](CC(N)=O)NC(=O)[C@H](CCCNC(=N)N)NC(=O)[C@H](CCCNC(=N)N)NC(=O)[C@H](CCCCN)NC(=O)[C@@H](N)CCCNC(=N)N)CCCCCCC=CCCC[C@@](C)(C(=O)N[C@@H](CC(=O)O)C(=O)N[C@@H](CCC(N)=O)C(N)=O)NC1=O` [IDP-LS13, RKRRNDLXSRFLALXDQ] (H-RKRRNDL[R8]SRFLAL[S5]DQ-NH2; staple 8-15; N-terminus and C-terminus assumed), the EC50 in experiment [1] was ~10 µM; in experiment [2], ~7 µM; in experiment [3], ~9 µM; in experiment [4], ~10 µM.
In the case of “RKRRNDLRSRFLALRDQ-NH2 (C-terminus assumed) [IDP-wtL05, Arg-Lys-Arg-Arg-Asn-Asp-Leu-Arg-Ser-Arg-Phe-Leu-Ala-Leu-Arg-Asp-Gln]”, the 50% effective concentration (EC50) in experiment [1] was > 100 µM; in experiment [2], > 100 µM; in experiment [3], ~10 µM; in experiment [4], > 100 µM. Further, in experiment [3] (summary in words of Table 2), the “activity in RPMI cell lines” value is “shows activity”.
Regarding `CC(C)C[C@@H]1NC(=O)[C@H](C)NC(=O)[C@H](CCCCN)NC(=O)[C@H](CO)NC(=O)[C@H](CC(C)C)NC(=O)C(C)(NC(=O)[C@@H](NC(=O)[C@@H](NC(=O)[C@H](CCCCN)NC(=O)[C@@H]2CCCN2C(=O)[C@H](C)N)C(C)C)C(C)C)CCCCCCC=CCCCC(C)(C(=O)N[C@@H](CC(C)C)C(=O)N[C@@H](CCC(N)=O)C(=O)N[C@@H](C)C(N)=O)NC(=O)[C@H](CCC(=O)O)NC1=O` (stereo partly shown) [IDP-LS16, APKVVXLSKALEXLQA] (H-APKVV[X1]LSKALE[ξαMeNle(6-ylidene)]LQA-NH2; staple 6-13; N-terminus and C-terminus assumed), the EC50 in experiment [1] was > 100 µM; in experiment [2], > 100 µM; in experiment [3], ~15 µM; in experiment [4], ~10 µM.
For `CC(C)C[C@@H]1NC(=O)[C@H](C)NC(=O)[C@H](CC(C)C)NC(=O)[C@H](Cc2ccccc2)NC(=O)C(C)(NC(=O)[C@H](CO)NC(=O)[C@H](CCCNC(=N)N)NC(=O)[C@H](CC(C)C)NC(=O)[C@H](CC(=O)O)NC(=O)[C@H](CC(N)=O)NC(=O)[C@H](CCCNC(=N)N)NC(=O)[C@H](CCCNC(=N)N)NC(=O)[C@H](CCCCN)NC(=O)[C@@H](N)CCCNC(=N)N)CCCCCCC=CCCCC(C)(C(N)=O)NC(=O)[C@H](CC(=O)O)NC(=O)[C@H](CCCNC(=N)N)NC1=O` (stereo partly shown) [IDP-LS15, RKRRNDLRSXFLALRDX] (H-RKRRNDLRS[X1]FLALRD[ξαMeNle(6-ylidene)]-NH2; staple 10-17 (inferred); N-terminus and C-terminus assumed), the half-maximal effective concentration (EC50) in experiment [1] was > 100 µM; in experiment [2] it was > 100 µM; in experiment [3], ~7 µM; in experiment [4], ~8 µM.
Regarding “RRRRRRRSKAPKVVILSKALEYLQA-NH2 [IDP-LLCb01]”, the EC50 in experiment [5] is ~5 µM; in experiment [6], ~2.5 µM; in experiment [7] it was ~5 µM. Besides, the “anti-cancer activity in SCLC cell lines” value in the experiment with SCLC cell lines is on record as “showed anti-cancer activity”.
On to `CC(C)C[C@H](NC(=O)[C@H](C)NC(=O)[C@H](CC(C)C)NC(=O)C1(C)CCCC=CCCCCCCC(C)(NC(=O)[C@H](CCCNC(=N)N)NC(=O)[C@H](CCCCN)NC(=O)[C@@H](N)CCCNC(=N)N)C(=O)N[C@@H](CC(N)=O)C(=O)N[C@@H](CC(=O)O)C(=O)N[C@@H](CC(C)C)C(=O)N[C@@H](CCCNC(=N)N)C(=O)N[C@@H](CO)C(=O)N[C@@H](CCCNC(=N)N)C(=O)N1)C(=O)N[C@@H](CCCNC(=N)N)C(=O)N[C@@H](CC(=O)O)C(=O)N[C@@H](CCC(N)=O)C(N)=O` (stereo partly shown) [IDP-LS05, RKRXNDLRSRXLALRDQ] (H-RKR[X1]NDLRSR[ξαMeNle(6-ylidene)]LALRDQ-NH2; staple 4-11; N-terminus and C-terminus assumed), for which the EC50 in experiment [1] was > 100 µM; in experiment [2] it was ~5 µM; in experiment [3] it was ~6 µM; in experiment [4], > 100 µM.
